Activity calls are given as the source filed them. No cut-off for these calls is given here.
Columns and labels:
[1] = system: HCT-116; assay: Cytotoxicity against human HCT116 cells at 30 uM after 48 hrs by MTT assay relative to control; type: functional
[2] = system: A549; assay: Cytotoxicity against human A549 cells at 30 uM after 48 hrs by MTT assay relative to control; type: functional
[3] = system: HeLa; assay: Cytotoxicity against human HeLa cells at 30 uM after 48 hrs by MTT assay relative to control; type: functional
[4] = system: HCT-116; assay: Cytotoxicity against human HCT116 cells after 72 hrs by MTT assay; type: functional, cell-based; conditions: HCT-116, 72 h
[5] = system: NCI-H460; assay: Induction of morphological changes in human NCI-H460 cells assessed as cell detachment after 72 hrs by phase contrast microscopic analysis; type: functional, cell-based
[6] = system: NCI-H460; assay: Induction of apoptosis in human NCI-H460 cells assessed as reduction in cell number at 0.25 to 10 uM after 72 hrs by acridine orange/ethidium bromide staining based fluorescence microscopic analysis; type: functional
[7] = system: NCI-H460; assay: Induction of apoptosis in human NCI-H460 cells assessed as chromatin condensation at 0.25 to 10 uM after 72 hrs by acridine orange/ethidium bromide staining based fluorescence microscopic analysis; type: functional, cell-based
[8] = system: NCI-H460; assay: Induction of apoptosis in human NCI-H460 cells assessed as membrane blebbing at 0.25 to 10 uM after 72 hrs by acridine orange/ethidium bromide staining based fluorescence microscopic analysis; type: functional, cell-based
[9] = system: NCI-H460; assay: Induction of apoptosis in human NCI-H460 cells assessed as appearance of horse-shoe shaped nuclei at 0.25 to 10 uM after 72 hrs by DAPI staining based fluorescence microscopic analysis; type: functional, cell-based
[10] = system: NCI-H460; assay: Induction of reactive oxygen species generation in human NCI-H460 cells after 24 hrs by DCFDA staining based fluorescence microscopic analysis; type: functional, cell-based
[11] = system: NCI-H460; assay: Induction of mitochondrial membrane potential loss in human NCI-H460 cells assessed as depolarized cell population at 1 uM after 72 hrs by JC1 staining based flow cytometry (reference value: 11.63%); type: functional
[12] = system: NCI-H460; assay: Induction of mitochondrial membrane potential loss in human NCI-H460 cells assessed as depolarized cell population at 5 uM after 72 hrs by JC1 staining based flow cytometry (reference value: 11.63%); type: functional
[13] = system: NCI-H460; assay: Induction of mitochondrial membrane potential loss in human NCI-H460 cells assessed as depolarized cell population at 10 uM after 72 hrs by JC1 staining based flow cytometry (reference value: 11.63%); type: functional
[14] = system: NCI-H460; assay: Induction of apoptosis in human NCI-H460 cells assessed as viable cells at 1 uM after 72 hrs by Annexin V-alexa fluor 488/propidium iodide staining based flow cytometry (reference value: 98.55%); type: functional; conditions: NCI-H460, 72 h, read-out: Activity
[15] = system: NCI-H460; assay: Induction of apoptosis in human NCI-H460 cells assessed as early apoptotic cells at 1 uM after 72 hrs by Annexin V-alexa fluor 488/propidium iodide staining based flow cytometry (reference value: 0.77%); type: functional
[16] = system: NCI-H460; assay: Induction of apoptosis in human NCI-H460 cells assessed as late apoptotic cells at 1 uM after 72 hrs by Annexin V-alexa fluor 488/propidium iodide staining based flow cytometry (reference value: 0.34%); type: functional
[17] = system: NCI-H460; assay: Induction of apoptosis in human NCI-H460 cells assessed as necrotic cells at 1 uM after 72 hrs by Annexin V-alexa fluor 488/propidium iodide staining based flow cytometry (reference value: 0.34%); type: functional
[18] = system: NCI-H460; assay: Induction of apoptosis in human NCI-H460 cells assessed as necrotic cells at 2.5 uM after 72 hrs by Annexin V-alexa fluor 488/propidium iodide staining based flow cytometry (reference value: 0.34%); type: functional
[19] = system: NCI-H460; assay: Induction of apoptosis in human NCI-H460 cells assessed as viable cells at 5 uM after 72 hrs by Annexin V-alexa fluor 488/propidium iodide staining based flow cytometry (reference value: 98.55%); type: functional; conditions: NCI-H460, 72 h, read-out: Activity
[20] = system: NCI-H460; assay: Induction of apoptosis in human NCI-H460 cells assessed as early apoptotic cells at 5 uM after 72 hrs by Annexin V-alexa fluor 488/propidium iodide staining based flow cytometry (reference value: 0.77%); type: functional
[21] = system: NCI-H460; assay: Induction of apoptosis in human NCI-H460 cells assessed as necrotic cells at 5 uM after 72 hrs by Annexin V-alexa fluor 488/propidium iodide staining based flow cytometry (reference value: 0.34%); type: functional
[22] = system: NCI-H460; assay: Induction of apoptosis in human NCI-H460 cells assessed as viable cells at 10 uM after 72 hrs by Annexin V-alexa fluor 488/propidium iodide staining based flow cytometry (reference value: 98.55%); type: functional; conditions: NCI-H460, 72 h, read-out: Activity
[23] = system: NCI-H460; assay: Induction of apoptosis in human NCI-H460 cells assessed as increase in late apoptotic cells after 72 hrs by Annexin V-alexa fluor 488/propidium iodide staining based flow cytometry; type: functional, cell-based
[24] = system: NCI-H460; assay: Induction of apoptosis in human NCI-H460 cells assessed as increase in early apoptotic cells after 72 hrs by Annexin V-alexa fluor 488/propidium iodide staining based flow cytometry; type: functional, cell-based
[25] = system: NCI-H460; assay: Cell cycle arrest in human NCI-H460 cells assessed as accumulation at sub-G1 phase at 1 uM after 24 hrs by propidium iodide staining based flow cytometry (reference value: 0.99%); type: functional
[26] = system: NCI-H460; assay: Cell cycle arrest in human NCI-H460 cells assessed as accumulation at S phase at 1 uM after 24 hrs by propidium iodide staining based flow cytometry (reference value: 9.93%); type: functional
[27] = system: NCI-H460; assay: Cell cycle arrest in human NCI-H460 cells assessed as accumulation at sub-G1 phase at 2.5 uM after 24 hrs by propidium iodide staining based flow cytometry (reference value: 0.99%); type: functional
[28] = system: NCI-H460; assay: Cell cycle arrest in human NCI-H460 cells assessed as accumulation at G0/G1 phase at 2.5 uM after 24 hrs by propidium iodide staining based flow cytometry (reference value: 49.6%); type: functional
[29] = system: NCI-H460; assay: Cell cycle arrest in human NCI-H460 cells assessed as accumulation at S phase at 2.5 uM after 24 hrs by propidium iodide staining based flow cytometry (reference value: 9.93%); type: functional
[30] = system: NCI-H460; assay: Cell cycle arrest in human NCI-H460 cells assessed as accumulation at G2/M phase at 2.5 uM after 24 hrs by propidium iodide staining based flow cytometry (reference value: 35.49%); type: functional
[31] = system: NCI-H460; assay: Cell cycle arrest in human NCI-H460 cells assessed as accumulation at sub-G1 phase at 5 uM after 24 hrs by propidium iodide staining based flow cytometry (reference value: 0.99%); type: functional
[32] = system: NCI-H460; assay: Cell cycle arrest in human NCI-H460 cells assessed as accumulation at S phase at 5 uM after 24 hrs by propidium iodide staining based flow cytometry (reference value: 9.93%); type: functional
[33] = system: NCI-H460; assay: Cell cycle arrest in human NCI-H460 cells assessed as accumulation at G2/M phase at 5 uM after 24 hrs by propidium iodide staining based flow cytometry (reference value: 35.49%); type: functional
[34] = system: NCI-H460; assay: Cell cycle arrest in human NCI-H460 cells assessed as accumulation at sub-G1 phase at 10 uM after 24 hrs by propidium iodide staining based flow cytometry (reference value: 0.99%); type: functional
[35] = system: NCI-H460; assay: Cell cycle arrest in human NCI-H460 cells assessed as accumulation at G0/G1 phase at 10 uM after 24 hrs by propidium iodide staining based flow cytometry (reference value: 49.6%); type: functional
[36] = system: NCI-H460; assay: Cell cycle arrest in human NCI-H460 cells assessed as accumulation at G2/M phase at 10 uM after 24 hrs by propidium iodide staining based flow cytometry (reference value: 35.49%); type: functional

CCOC(=O)/C(=C(\N)C(=O)c1ccccc1)C1C(=O)N(C)c2ccc(F)cc21 (stereo unspecified)
Activity [1]: >50% | Activity [2]: >50% | Activity [3]: >50% | IC50 [4]: 5.14 µM | Activity [5]: Dose-dependent effect | Activity [6]: Active | Activity [7]: Active | Activity [8]: Active | Activity [9]: Active | Activity [10]: Dose-dependent effect | Activity [11]: 42.95% | Activity [12]: 83.8% | Activity [13]: 90.49% | viability at 1 µM [14]: 87.9% | Activity [15]: 8.72% | Activity [16]: 3.15% | Activity [17]: 0.24% | Activity [18]: 0.34% | viability at 5 µM [19]: 61.1% | Activity [20]: 35.42% | Activity [21]: 0.21% | viability at 10 µM [22]: 40.4% | Activity [23]: Dose-dependent effect | Activity [24]: Dose-dependent effect | Activity [25]: 9.93% | Activity [26]: 6.55% | Activity [27]: 9.91% | Activity [28]: 9.73% | Activity [29]: 64.98% | Activity [30]: 64.03% | Activity [31]: 11.94% | Activity [32]: 3.59% | Activity [33]: 65.46% | Activity [34]: 11.66% | Activity [35]: 9.18% | Activity [36]: 67.37%

Source: ChEMBL document CHEMBL4261621, “Synthesis of enamino-2-oxindoles via conjugate addition between α-azido ketones and 3-alkenyl oxindoles: Cytotoxicity evaluation and apoptosis inducing studies” (Bioorg Med Chem Lett, 2018)
